The values below are quoted from earlier work in US20130309220A1, “COMPOSITIONS FOR TREATING MICROBIAL INFECTIONS” (priority 2012, published 2013).

Turning to `CCC(=O)O[C@]1(C(=O)SCF)[C@H](C)C[C@H]2[C@@H]3C[C@H](F)C4=CC(=O)C=C[C@]4(C)[C@@]3(F)[C@@H](O)C[C@@]21C` [Fluticasone propionate, S-(fluromethyl)6α,9-difluoro-11β-17-dihydroxy-16α-methyl-3-oxoandrosta-1,4-diene-17β-carbothioate,17-propionate], the “solubility in 95% ethanol” value (95% ethanol) is listed as “slightly soluble”. The “solubility in dimethyl sulfoxide” value (dimethyl sulfoxide) is “freely soluble”. The solubility in dimethylformamide entry (dimethylformamide) was “freely soluble”. Also, the solubility in methanol entry (methanol) is recorded as “slightly soluble”. In addition, the solubility in water entry (water) is listed as “practically insoluble”.
